Measured values published in patent US20230321286A1, “PROTOCOL FOR MINIMIZING TOXICITY OF COMBINATION DOSAGES AND IMAGING AGENT FOR VERIFICATION” (priority 2018, published 2023).

Tests used:
[1] = Plasma concentration of PLX038, released SN-38 and SN-38G in rats bearing HT29 tumor xenografts (HPLC with fluorescence monitoring); format: in vivo; details: rat with HT29 xenograft, ~200 mg/kg PLX038, conjugate
HT29 tumor xenografts = test: Levels of conjugate and released SN-38 in tumor versus plasma, HT29 xenograft-bearing rats
MX-1 tumor xenografts = test: Efficacy of PLX038A (PEG-SN38) in mice bearing MX-1 tumor xenografts; details: 137 µmole/kg irinotecan single dose
HT-29 xenograft = details: irinotecan control
Protocol: Varying doses of the unlabeled PEG~(SN-38)4 conjugate are injected into animals.

[2] = 14 days post-dosing, single 200 mg/kg PLX038
[3] = administered dose 200 mg/kg PLX038

**Q.** With `CCc1c2c(nc3ccc(O)cc13)-c1cc3c(c(=O)n1C2)COC(=O)[C@]3(O)CC` [SN-38] as the molecule, how does the “half-life in plasma / systemic circulation” value [1] read?
**A.** 50 h

**Q.** And the accumulation in tumors (HT29 tumor xenografts; [2])?
**A.** high accumulation

**Q.** What about the serum levels (HT29 tumor xenografts; [2]) of the same molecule?
**A.** undetectable

**Q.** And the “concentration of released SN-38 in the tumor” value (HT29 tumor xenografts; [3])?
**A.** about 80 pm/g

**Q.** And the “released SN-38 in the circulation” value (HT29 tumor xenografts; [3])?
**A.** barely detectable

**Q.** What about the “conjugate / free drug in the plasma” value (HT29 tumor xenografts; lower dosages of PLX038) of the same molecule?
**A.** not detected in the plasma

**Q.** What about the “conjugate / free drug in the tumor” value (HT29 tumor xenografts; lower dosages of PLX038) of the same molecule?
**A.** significant concentrations

**Q.** What does the source list for `CCc1c2c(nc3ccc(OC(=O)N4CCC(N5CCCCC5)CC4)cc13)-c1cc3c(c(=O)n1C2)COC(=O)[C@]3(O)CC` [irinotecan]?
**A.** effect on tumor growth compared with vehicle (MX-1 tumor xenografts): only somewhat better than vehicle; tumor inhibition relative to PLX038 (HT-29 xenograft): near-equal tumor inhibition; gastrointestinal (GI) toxicity (HT-29 xenograft; rat HT-29 xenograft model, PLX038 single 200 mg/kg): significant GI toxicity
